From patent publication US9145354B2, “Pharmaceutical compounds” (priority 2011, dated 2015)
Like-named read-outs stand apart in the source and are kept apart here.

Key:
full length NS3/4a = full length NS3/4a (Hepatitis C virus genotype 1b (isolate BK) (HCV), UniProt P26663); experiment: NS3 Protease Assay (Example A), FRET-based; format: biochemical
How it was run: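 Full-length NS3/4a, made in-house, with an NS4A/B-derived peptide substrate carrying QXL520 quencher and 5-FAMsp fluorophore. Buffer 50 mM Tris pH8, 20 mM DTT, 1% CHAPS, 10% glycerol, 5% DMSO. Fluorescence followed 30 min at room temperature; IC50 from initial rates of replicate curves.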

[1] = system: HCV subgenomic replicon in Huh-7 cells; experiment: Replicon Assay (Example B), luciferase readout EC50; format: cell-based; settings: Hepatitis C virus, Huh-7, replicon assay, luciferase readout; upper value of the cell pair; read-out: Assay B EC50
Protocol: The activities of compounds of the invention against HCV in a cellular environment were analysed using a replicon assay as described below.
(§1) Thus, Huh-7 cells persistently infected with an HCV-RNA construct (Bartenschlager, R. Hepatitis C replicons: potential role for drug development. Nature Rev. Drug Discov. 1, 911-916 (2002)) comprising: 5′ and 3′ non-translated regions (NTR); the non-structural genes NS3 to NS5b; as well as the G418 drug resistance gene, neomycin, (for selection of cells carrying HCV replicon RNA) fused to the firefly Luciferase reporter gene (pFKI3889Iuc-ubi-neo/NS3-3′/ET) were used to determine the cell based antiviral activity of compounds using luciferase activity as an indirect readout of HCV RNA load. In this assay […] huh-7 cells persistently infected with the HCV subgenomic replicon construct above were plated/well in a 96 well tissue culture plate. The cells were allowed to attach overnight in DMEM medium supplemented with 10% FBS 1% NEAA, and 250 μg/ml gentamicin. The following day the medium was replaced with 200 μl/well of fresh medium as described above lacking gentamicin. Semilog dilutions of compounds in medium were then added to triplicate wells (non-edge) of the cultured cells to give a 0.1% DMSO final concentration. Plates were then incubated at 37° C. in an atmosphere of 5% CO2 and air for 72 h. […] The plate was then read at 535 nm (excitation) and 590 nm (emission) on a SpectraMax Gemini reader (Molecular Devices) to determine the number of viable cells by measuring the conversion of rezasurin (Alamar blue) to resorufin in response to mitochondrial activity. In order to determine the antiviral effect of these compounds EC50 values were determined by measuring the luciferase activity of the cells. Alamar blue solution was removed from the wells and replaced with 100 μl/well of medium along with 100 μl/well of Bright-Glo reagent and incubated at room temperature for 5 minutes before transferring 100 μl/well to a white bottom 96 well plate to read in a luminometer as described in the Bright-Glo Luciferase Assay System protocol (promega).

[2] = Replicon Assay (Example B), Alamar Blue cytotoxicity CC50; format: cell-based; settings: human, lower value of the cell pair
Excerpt: as §1

[3] = HCV NS3 protease assay, full length NS3/4a, read-out: Assay A IC50 (μM) average
[4] = read-out: IC50 against the protease activity of the full length NS3/4a

Chain of full length NS3/4a (P26663 1027-1657): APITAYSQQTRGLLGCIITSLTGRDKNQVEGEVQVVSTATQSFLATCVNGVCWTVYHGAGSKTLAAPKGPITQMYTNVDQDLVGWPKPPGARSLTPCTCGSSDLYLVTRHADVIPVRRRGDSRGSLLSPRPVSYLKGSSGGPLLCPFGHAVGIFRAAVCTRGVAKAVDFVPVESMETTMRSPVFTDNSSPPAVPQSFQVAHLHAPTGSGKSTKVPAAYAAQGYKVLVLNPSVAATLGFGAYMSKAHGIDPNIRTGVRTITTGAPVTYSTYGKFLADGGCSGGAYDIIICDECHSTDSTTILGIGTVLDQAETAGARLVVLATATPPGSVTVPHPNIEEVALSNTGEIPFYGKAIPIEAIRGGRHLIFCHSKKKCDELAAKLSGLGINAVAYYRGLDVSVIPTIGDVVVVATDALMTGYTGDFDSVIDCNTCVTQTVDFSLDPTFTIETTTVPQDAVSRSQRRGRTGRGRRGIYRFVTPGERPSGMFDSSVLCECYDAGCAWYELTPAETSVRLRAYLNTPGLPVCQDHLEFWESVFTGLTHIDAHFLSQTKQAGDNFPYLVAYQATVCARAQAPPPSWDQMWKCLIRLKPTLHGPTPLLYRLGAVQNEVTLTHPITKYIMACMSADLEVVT

Structure (SMILES)	IC50 (full length NS3/4a; [3]) [µM]	EC50 [1] [nM]	CC50 at 72 h [2] [nM]	IC50 (full length NS3/4a; [4]) [µM]
CC[C@@H](NCCO)c1ccc(Cl)c(C(=O)c2ccccc2)c1F [Example 176, 2-{[(1R)-1-(3-benzoyl-4-chloro-2-fluorophenyl)propyl]amino}ethan-1-ol]	0.29	> 3000	> 3000	–
CC[C@H](N[C@@H](C)CO)c1ccc(Cl)c(C(=O)c2ccc(N)nc2)c1F [Example 177, (2S)-2-{[(1S)-1-{3-[(6-aminopyridin-3-yl)carbonyl]-4-chloro-2-fluorophenyl}propyl]amino}propan-1-ol]	0.18	> 3000	> 3000	–
CC[C@H](N[C@H](C)CO)c1ccc(Cl)c(C(=O)c2ccc(N)nc2)c1F [Example 178, (2R)-2-{[(1S)-1-{3-[(6-aminopyridin-3-yl)carbonyl]-4-chloro-2-fluorophenyl}propyl]-amino}propan-1-ol]	0.088	250	> 3000	–
CCC(NC(C)(C)CO)c1ccc(Cl)c(C(=O)c2ccccc2)c1F (stereo not drawn) [Example 179, 2-{[1-(3-benzoyl-4-chloro-2-fluorophenyl)-propyl]amino}-2-methylpropan-1-ol]	0.063	300	> 3000	–
CC[C@@H](NCCC(N)=O)c1ccc(Cl)c(C(=O)c2ccc(N)nc2)c1F [Example 180, 3-{[(1R)-1-{3-[(6-Aminopyridin-3-yl)carbonyl]-4-chloro-2-fluorophenyl}propyl]amino}propanamide]	0.14	270	> 3000	–
CC[C@@H](NCCC(N)=O)c1ccc(Cl)c(C(=O)c2cnc(N)cn2)c1F [Example 183, 3-{[(1R)-1-{3-[(5-Aminopyrazin-2-yl)carbonyl]-4-chloro-2-fluorophenyl}propyl]amino}propanamide]	0.5	2200	> 10000	–
COc1ccc([C@H](N[C@@H](C)CC(N)=O)C2CC2)c(F)c1C(=O)c1cccc(F)c1 [Example 224, (3S)-3-{[(R)-cyclopropyl({2-fluoro-3-[(3-fluorophenyl)carbonyl]-4-methoxyphenyl})methyl]amino}butanamide]	0.081	190	> 3000	–
CC[C@@H](CC(N)=O)N[C@H](CC)c1ccc(Cl)c(C(=O)c2ccc(N)nc2)c1F [Example 225, (3S)-3-{[(1R)-1-{3-[(6-aminopyridin-3-yl)carbonyl]-4-chloro-2-fluorophenyl}propyl]amino} pentanamide]	0.35	28	> 3000	–
CC[C@@H](N[C@@H](C)CC(N)=O)c1ccc(Cl)c(C(=O)c2cccc(O)c2)c1F [Example 227, (3S)-3-{[(1R)-1-{4-chloro-2-fluoro-3-[(3-hydroxyphenyl)carbonyl]phenyl}propyl]amino} butanamide]	0.15	11	> 3000	< 1
CC[C@@H](N[C@@H](C)CC(N)=O)c1ccc(Cl)c(C(=O)c2ccc3c(n2)NC(=O)CO3)c1F [Example 229, (3S)-3-{[(1R)-1-[4-chloro-2-fluoro-3-({3-oxo-2H,3H,4H-pyrido[3,2-b][1,4]oxazin-6-yl}carbonyl)phenyl]propyl]amino}butanamide]	1.1	1900	> 3000	1 to 5
CC[C@@H](N[C@@H](C)CC(N)=O)c1ccc(Cl)c(C(=O)c2ccc(O)cc2)c1F [Example 230, (3S)-3-{[(1R)-1-{4-chloro-2-fluoro-3-[(4-hydroxyphenyl)carbonyl]phenyl}propyl]amino} butanamide]	0.55	37	> 3000	< 1
CC[C@@H](N[C@@H](C)CC(N)=O)c1ccc(Cl)c(C(=O)c2ccc(N)c(Cl)c2)c1F [Example 234, (3S)-3-{[(1R)-1-{3-[(4-amino-3-chlorophenyl)carbonyl]-4-chloro-2-fluorophenyl}propyl]amino} butanamide]	0.14	2.8	> 1000	< 1
CC[C@@H](N[C@@H](C)CC(N)=O)c1ccc(Cl)c(C(=O)c2ccc(C#N)c(OC)c2)c1F [Example 235, (3S)-3-{[(1R)-1-{4-chloro-3-[(4-cyano-3-methoxyphenyl)carbonyl]-2-fluorophenyl}propyl]amino} butanamide]	0.13	8.8	> 1000	< 1
C[C@@H](CC(N)=O)N[C@@H](c1ccc(Cl)c(C(=O)c2ccc(N)cn2)c1F)C1CC1 [Example 237, (3S)-3-{[(R)-{3-[(5-aminopyridin-2-yl)carbonyl]-4-chloro-2-fluorophenyl}(cyclopropyl)methyl]amino}butanamide]	0.31	47	> 1000	–
C[C@@H](CC(N)=O)N[C@@H](c1ccc(Cl)c(C(=O)c2ccc(C#N)cn2)c1F)C1CC1 [Example 238, (3S)-3-{[(R)-{4-chloro-3-[(5-cyanopyridin-2-yl)carbonyl]-2-fluorophenyl}(cyclopropyl)methyl]amino}butanamide]	0.11	30	> 1000	–
CC[C@@H](N[C@@H](C)CC(N)=O)c1ccc(Cl)c(C(=O)c2cc(C)c(N)cn2)c1F [Example 239, (3S)-3-{[(1R)-1-{3-[(5-amino-4-methylpyridin-2-yl)carbonyl]-4-chloro-2-fluorophenyl}propyl]amino} butanamide]	0.5	38	> 1000	–
CC[C@@H](N[C@@H](C)CC(=O)NCCO)c1ccc(Cl)c(C(=O)c2ccc(N)nc2)c1F [Example 242, (3S)-3-{[(1R)-1-{3-[(6-aminopyridin-3-yl)carbonyl]-4-chloro-2-fluorophenyl}propyl]amino}-N-(2-hydroxyethyl)butanamide]	0.49	98	> 1000	–
CC[C@@H](N[C@@H](C)CC(N)=O)c1ccc(Cl)c(C(=O)c2ccc3c(c2)OCC(=O)N3)c1F [Example 247, (3S)-3-{[(1R)-1-{4-chloro-2-fluoro-3-[(3-oxo-3,4-dihydro-2H-1,4-benzoxazin-7-yl)carbonyl]phenyl}propyl]amino}butanamide]	0.29	21	> 1000	< 1
CC[C@@H](N[C@@H](C)CC(N)=O)c1ccc(Cl)c(C(=O)c2ccc3c(c2)OCCN3)c1F [Example 249, (3S)-3-{[(1R)-1-{4-chloro-3-[(3,4-dihydro-2H-1,4-benzoxazin-7-yl)carbonyl]-2-fluorophenyl}propyl]amino} butanamide]	0.27	33	> 1000	–
CC[C@@H](NC(C)(C)CC(N)=O)c1ccc(Cl)c(C(=O)c2ccc(N)nc2)c1F [Example 250, 3-{[(1R)-1-{3-[(6-aminopyridin-3-yl)carbonyl]-4-chloro-2-fluorophenyl}propyl]amino}-3-methylbutanamide]	0.095	29	> 1000	–
CC[C@H](NC(C)(C)CC(N)=O)c1ccc(Cl)c(C(=O)c2ccc(N)nc2)c1F [Example 251, 3-{[(1S)-1-{3-[(6-aminopyridin-3-yl)carbonyl]-4-chloro-2-fluorophenyl}propyl]amino}-3-methylbutanamide]	0.3	> 1000	> 1000	–
CC[C@@H](N[C@@H](C)CC(N)=O)c1ccc(OC)c(C(=O)c2ccc(N)nc2)c1F [Example 252, (3S)-3-{[(1R)-1-{3-[(6-aminopyridin-3-yl)carbonyl]-2-fluoro-4-methoxyphenyl}propyl]amino}butanamide]	0.18	130	> 1000	–
C[C@@H](CC(N)=O)N[C@@H](c1ccc(Cl)c(C(=O)c2ccc(N)c(C#N)c2)c1F)C1CC1 [Example 255, (3S)-3-{[(R)-{3-[(4-amino-3-cyanophenyl)carbonyl]-4-chloro-2-fluorophenyl}(cyclopropyl)methyl]amino}butanamide]	0.24	27	> 1000	–
C=CC[C@@H](N[C@@H](C)CC(N)=O)c1ccc(Cl)c(C(=O)c2ccc(N)nc2)c1F [Example 256, (3S)-3-{[(1R)-1-{3-[(6-aminopyridin-3-yl)carbonyl]-4-chloro-2-fluorophenyl}but-3-en-1-yl]amino} butanamide]	0.47	46	> 1000	–
